Test results as given in patent US20230129258A1, “HETEROTANDEM BICYCLIC PEPTIDE COMPLEXES” (BicycleTx Limited, priority 2019, published 2023).
Entries after “also recorded” stand apart in the source; their conditions may differ. Starred links: 1 amine or outer side, 2 acyl side, 3 side chain; linkers in the order of their positions; H or OH if unused. Positions of bridges follow the written chain, without caps; N, C: chain ends. Non-standard residues stand in square brackets, D forms with d. Chains are numbered I, II in the order given. X1 = O=C(CCOCCOCCOCCN(CCOCCOCCOCCn1cc(CCC(=O)[*:2])nn1)CCOCCOCCOCCn1cc(CCC(=O)[*:3])nn1)[*:1]; TATA = O=C(CC[*:1])N1CN(C(=O)CC[*:2])CN(C(=O)CC[*:3])C1; d1Nal = N[C@H](Cc1cccc2ccccc12)C(=O)O; Hyp = O=C(O)[C@@H]1C[C@@H](O)CN1; hArg = N=C(N)NCCCC[C@H](N)C(=O)O; tBuAla = CC(C)(C)C[C@H](N)C(=O)O; Nle = CCCC[C@H](N)C(=O)O

Legend:
[1] = Pharmacokinetics in SD rats; type: in vivo; settings: for half-life: iv
Summary of the method: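 Male SD rats received the heterotandem Bicycle complex IV bolus or 15-min IV infusion in 25 mM histidine HCl, 10% sucrose pH 7. Serial K2-EDTA plasma analysed by LC-MS/MS (Orbitrap, positive mode); parameters from non-compartmental analysis.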

[2] = Pharmacokinetics in CD1 mice; type: in vivo, CD-1 mice
Method: Serial bleeding (about 80 μL blood/time point) was performed via submandibular or saphenous vein at each time point. All blood samples were immediately transferred into prechilled microcentrifuge tubes containing 2 μL K2-EDTA (0.5M) as anti-coagulant and placed on wet ice. Blood samples were immediately processed for plasma by centrifugation at approximately 4° C., 3000 g. The precipitant including internal standard was immediately added into the plasma, mixed well and centrifuged at 12,000 rpm, 4° C. for 10 minutes. The supernatant was transferred into pre-labeled polypropylene microcentrifuge tubes, and then quick-frozen over dry ice. The samples were stored at […] or below as needed until analysis. 7.5 μL of the supernatant samples were directly injected for LC-MS/MS analysis using an Orbitrap Q Exactive in positive ion mode to determine the concentrations of analyte. Plasma concentration versus time data were analyzed by non-compartmental approaches using the Phoenix WinNonlin 6.3 software program. C0, CI, Vdss, T½, AUC(0-last), AUC(0-inf), MRT(0-last), MRT(0-inf) and graphs of plasma concentration versus time profile were reported.

CD137 = CD137 (Homo sapiens, UniProt Q07011); test: SPR (Biacore) binding to immobilized human CD137; parameters: purchased R&D systems; settings: for off rate (koff) from immobilized CD137: avidity from two CD137 binding bicycles; for affinity to immobilized CD137 (human), in words: reported KD may be an overestimation
Method: Biacore experiments were performed to determine ka (M^−1s^−1), kd (s^−1), KD (nM) values of heterotandem peptides binding to human CD137 protein. […] The protein was desalted to remove uncoupled biotin using spin columns into PBS.
For analysis of peptide binding, a Biacore T200 or a Biacore 3000 instrument was used with a XanTec CMD500D chip. Streptavidin was immobilized on the chip using standard amine-coupling chemistry at 25° C. with HBS-N (10 mM HEPES, 0.15 M NaCl, pH 7.4) as the running buffer. Briefly, the carboxymethyl dextran surface was activated with a 7 min injection of a 1:1 ratio of 0.4 M 1-ethyl-3-(3-dimethylaminopropyl) carbodiimide hydrochloride (EDC)/0.1 M N-hydroxy succinimide (NHS) at a flow rate of 10 μl/min. For capture of streptavidin, the protein was diluted to 0.2 mg/ml in 10 mM sodium acetate (pH 4.5) and captured by injecting 120 μl of onto the activated chip surface. Residual activated groups were blocked with a 7 min injection of 1 M ethanolamine (pH 8.5) and biotinylated CD137 captured to a level of 270-1500 RU. Buffer was changed to PBS/0.05% Tween 20 and a dilution series of the peptides was prepared in this buffer with a final DMSO concentration of 0.5%. The top peptide concentration was 500 nM with 6 further 2-fold or 3-fold dilutions. The SPR analysis was run at 25° C. at a flow rate of 90 μl/min with 60 seconds association and 900 seconds dissociation. After each cycle a regeneration step (10 μl of 10 mM glycine pH 2) was employed. Data were corrected for DMSO excluded volume effects as needed. All data were double-referenced for blank injections and reference surface using standard processing procedures and data processing and kinetic fitting were performed using Scrubber software, version 2.0c (BioLogic Software). Data were fitted using simple 1:1 binding model allowing for mass transport effects where appropriate.

Chain of CD137 (Q07011 24-255): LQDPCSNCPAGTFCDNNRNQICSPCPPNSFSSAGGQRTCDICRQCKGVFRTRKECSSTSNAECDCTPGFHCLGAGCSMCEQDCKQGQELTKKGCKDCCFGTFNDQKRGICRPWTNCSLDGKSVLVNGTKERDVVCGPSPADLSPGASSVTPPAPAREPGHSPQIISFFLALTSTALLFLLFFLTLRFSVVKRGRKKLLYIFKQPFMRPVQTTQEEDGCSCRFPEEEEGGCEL

CCCC[C@@H]1NC(=O)[C@H](Cc2ccc(O)cc2)NC(=O)[C@@H]2CCCN2C(=O)[C@H](CC(=O)O)NC(=O)[C@H](C)NC(=O)[C@H](Cc2ccccc2)NC(=O)[C@@H]2CSCCC(=O)N3CN(CN(C3)C(=O)CCSC[C@@H](C(=O)N[C@@H](C)C(N)=O)NC1=O)C(=O)CCSC[C@H](NC(C)=O)C(=O)N[C@@H](CC(C)(C)C)C(=O)N1CCC[C@H]1C(=O)N[C@@H](CCC(=O)O)C(=O)N[C@H](CCCCNC(=O)CCc1cn(CCOCCOCCOCCN(CCOCCOCCOCCC(=O)N[C@H]3CSCCC(=O)N4CN5CN(C4)C(=O)CCSC[C@H](NC(=O)[C@@H](CC(=O)O)NC(=O)[C@H](Cc4cccc6ccccc46)NC(=O)[C@@H]4CCCN4C3=O)C(=O)N[C@@H](CCSC)C(=O)N[C@@H](CCCCNC(=N)N)C(=O)N[C@@H](CC(=O)O)C(=O)N[C@@H](Cc3c[nH]c4ccccc34)C(=O)N[C@@H](CO)C(=O)N[C@@H]([C@@H](C)O)C(=O)N3CCC[C@H]3C(=O)N3C[C@H](O)C[C@H]3C(=O)N[C@@H](Cc3c[nH]c4ccccc34)C(=O)N[C@H](C(N)=O)CSCCC5=O)CCOCCOCCOCCn3cc(CCC(=O)NCCCC[C@H]4NC(=O)[C@H](CCC(=O)O)NC(=O)[C@@H]5CCCN5C(=O)[C@H](CC(C)(C)C)NC(=O)[C@@H](NC(C)=O)CSCCC(=O)N5CN6CN(C5)C(=O)CCSC[C@H](NC(=O)[C@H](Cc5ccc(O)cc5)NC(=O)[C@@H]5CCCN5C4=O)C(=O)N[C@@H](Cc4ccccc4)C(=O)N[C@@H](C)C(=O)N[C@@H](CC(=O)O)C(=O)N4CCC[C@H]4C(=O)N[C@@H](Cc4ccc(O)cc4)C(=O)N[C@@H](CCCC)C(=O)N[C@H](C(=O)N[C@@H](C)C(N)=O)CSCCC6=O)nn3)nn1)C(=O)N1CCC[C@H]1C(=O)N[C@@H](Cc1ccc(O)cc1)C(=O)N2 [BCY11863]
Clp ([1]; 100 mg/kg BCY11863 IV): 13 mL/min/kg
Vdss ([1]; 100 mg/kg BCY11863 IV): 2.3 L/kg
fraction metabolized to BCY15155 ([1]; IV administration of BCY11863, 100 mg/kg): < 1%
bioavailability from SC dosing ([1]; SC dosing): high
clearance (in words) ([1]; Table 6B): low clearance molecule
volume of distribution (in words) ([1]; Table 6B): volume of distribution larger than plasma volume
conversion to BCY14602 ([1]; first 24 h, IV BCY11863, 100 mg/kg): No significant conversion
half-life ([1]; male, SD, rat, plasma, 2 mg/kg, 2 mg/kg IV, n=3, read-out: terminal half life (converted)): 4.1 h
clearance ([1]; male, SD, rat, plasma, 2 mg/kg IV, n=3, read-out: clearance): 7.7 mL/min/kg
Vd ([1]; male, SD, rat, plasma, 2 mg/kg IV, n=3, read-out: volume of distribution at steady state (Vdss)): 1.6 L/kg
clearance ([1]; male, rat, plasma, SD rats, 1.9 mg/kg IV Bolus, read-out: Clp): 7.7 mL/min/kg
Vd ([1]; male, rat, plasma, SD rats, 1.9 mg/kg IV Bolus, read-out: Vdss): 1.6 L/kg
clearance ([1]; male, rat, plasma, SD rats, 3.2 mg/kg IV Inf (15 min), read-out: Clp): 9.3 mL/min/kg
Vd ([1]; male, rat, plasma, SD rats, 3.2 mg/kg IV Inf (15 min), read-out: Vdss): 1.3 L/kg
bioavailability ([1]; male, rat, plasma, SD rats, 6.3 mg/kg SC): 95%
bioavailability from IP dosing ([2]; IP dosing): high
clearance (in words) ([2]; IV study): low clearance molecule
volume of distribution (in words) ([2]; IV study): volume of distribution larger than plasma volume
half-life ([2]; male, CD-1, mouse, plasma, 15 mg/kg, mice, after IP injection, read-out: circulating plasma half-life (converted)): 2.5 h
clearance ([2]; male, mouse, plasma, CD-1 mice, 0.96 mg/kg IV Bolus, read-out: Clp): 21 mL/min/kg
half-life ([2]; male, mouse, plasma, CD-1 mice, 0.96 mg/kg IV Bolus, read-out: T½ (converted)): 1.7 h
Vd ([2]; male, mouse, plasma, CD-1 mice, 0.96 mg/kg IV Bolus, read-out: Vdss): 2.9 L/kg
clearance ([2]; male, mouse, plasma, CD-1 mice, 5.6 mg/kg IV Bolus, read-out: Clp): 9.7 mL/min/kg
half-life ([2]; male, mouse, plasma, CD-1 mice, 5.6 mg/kg IV Bolus, read-out: T½ (converted)): 2.6 h
Vd ([2]; male, mouse, plasma, CD-1 mice, 5.6 mg/kg IV Bolus, read-out: Vdss): 1.6 L/kg
clearance ([2]; male, mouse, plasma, CD-1 mice, 12 mg/kg IV Bolus, read-out: Clp): 17 mL/min/kg
half-life ([2]; male, mouse, plasma, CD-1 mice, 12 mg/kg IV Bolus, read-out: T½ (converted)): 2.6 h
Vd ([2]; male, mouse, plasma, CD-1 mice, 12 mg/kg IV Bolus, read-out: Vdss): 2.5 L/kg
bioavailability ([2]; male, mouse, plasma, CD-1 mice, 15.5 mg/kg IP): 100%
half-life ([2]; male, mouse, plasma, CD-1 mice, 15.5 mg/kg IP, read-out: T½ (converted)): 2.5 h
half-life ([2]; male, mouse, plasma, CD-1 mice, 32 mg/kg IV Bolus, read-out: T½ (converted)): 2.4 h
Vd ([2]; male, mouse, plasma, CD-1 mice, 32 mg/kg IV Bolus, read-out: Vdss): 2.1 L/kg
off rate (koff) from immobilized CD137 (CD137): extremely slow; also recorded: very slow
affinity to immobilized CD137 (human), in words (CD137): high affinity

I: A[hArg]DC[Hyp]LVNPLCLEP[d1Nal]WTC-NH2 / II: Ac-C[tBuAla]PE[dK]PYCFADPY[Nle]CA-NH2 / III: Ac-C[tBuAla]PE[dK]PYCFADPY[Nle]CA-NH2 (linker I:4-I:11-I:18, II:1-II:8-II:15, III:1-III:8-III:15 via TATA; linker I:N-II:5-III:5 via X1) [BCY13272]
terminal half life ([1]; 3.6 mg/kg IV infusion (15 min), n=3): 2.9 h
half-life ([1]; male, SD, rat, plasma, 3.6 mg/kg, 3.6 mg/kg IV infusion (15 min), n=3, read-out: terminal half life (converted)): 2.5 h
half-life ([1]; male, SD, rat, plasma, IV Inf (15 minutes), read-out: T1/2 (converted)): 2.5 h
clearance ([1]; male, SD, rat, plasma, 3.6 mg/kg IV infusion (15 min), n=3, read-out: clearance): 7.5 mL/min/kg
Vd ([1]; male, SD, rat, plasma, 3.6 mg/kg IV infusion (15 min), n=3, read-out: volume of distribution at steady state (Vdss)): 1 L/kg
Vd ([1]; male, SD, rat, plasma, IV Inf (15 minutes), read-out: Vdss): 1 L/kg
clearance ([2]; male, CD-1, mouse, plasma, 5.5 mg/kg IV, n=3, read-out: Clearance): 7.5 mL/min/kg
half-life ([2]; male, CD-1, mouse, plasma, 5.5 mg/kg IV, n=3, read-out: terminal plasma half life (converted)): 2.9 h
Vd ([2]; male, CD-1, mouse, plasma, 5.5 mg/kg IV, n=3, read-out: volume of distribution (Vdss)): 1.1 L/kg
off rate (koff) from immobilized CD137 (CD137): very slow
affinity to immobilized CD137 (human), in words (CD137): high affinity
